# Tests used:
# [1] = test system: normal human CD34+ hematopoietic progenitors; assay: Survival under essential amino acid starvation; format: cell-based
# [2] = test system: CCD841 cells derived from normal human intestinal epithelium; assay: Survival under essential amino acid starvation; format: cell-based
# Jurkat cells [3] = assay: GSK3α body (puncta) formation by confocal immunofluorescence microscopy; format: cell-based, human; settings: for Formation of GSK3α puncta on addition of amino acid: asparagine depleted cell
# Method: (§1) FIGS. 4A-4D show asparagine starvation induces phase separation of GSK3α into cytoplasmic bodies (or puncta), but not GSK3b. (FIG. 4A) Confocal immunofluorescence microscopy for GSK3α or the nuclear marker DAPI, in Jurkat cells treated with vehicle or asparaginase (100 U/L) for 48 hours. (FIG. 4B) Confocal immunofluorescence microscopy for GSK3β or the nuclear marker DAPI, in Jurkat cells treated with vehicle or asparaginase (100 U/L) for 48 hours. (FIG. 4C) Number of puncta per 50 cells. (FIG. 4D) Formation of GSK3α bodies is selective to asparaginase, and is not induced by other cellular stressors such as other chemotherapeutics or heat shock. ****, p<0.0001. ns (not significant), p>0.05.
# FIGS. 6A and 6B show GSK3α bodies function in the protein ubiquitination-proteasomal degradation pathway in response to asparagine starvation. (FIG. 6A) Jurkat T-ALL cells were treated with vehicle, asparaginase, the GSK3α inhibitor BRD0705, or the combination of asparaginase and BRD0705 (combo). Immunofluorescence microscopy was then performed for GSK3α, K48-linked ubiquitin chains (which mark proteins for proteasomal degradation), or the nuclear marker DAPI. Note that GSK3a can still undergo translocation into GSK3a bodies even if its enzymatic activity is inhibited, but the ability of GSK3a bodies to ubiquitinate proteins is completely dependent on the enzymatic activity of GSK3α. (FIG. 6B) Quantification of the immunofluorescence in 50 cells from each condition. Coloc refers to co-localization of both GSK3α and ubiquitin (ub), as determined by yellow color on the merged confocal image. ****, p<0.0001. ns (not significant), p>0.05.
# (§2) To test whether GSK3α undergoes spatial sequestration in response to asparaginase, we applied immunofluorescence using paralog-selective antibodies (FIG. S4).
# Jurkat T-ALL cells = assay: Co-localization of K48-linked ubiquitin with GSK3α bodies by immunofluorescence; format: cell-based, human; settings: combination with asparaginase
# Method: (FIG. 6A) Jurkat T-ALL cells were treated with vehicle, asparaginase, the GSK3α inhibitor BRD0705, or the combination of asparaginase and BRD0705 (combo). Immunofluorescence microscopy was then performed for GSK3α, K48-linked ubiquitin chains (which mark proteins for proteasomal degradation), or the nuclear marker DAPI. […] (FIG. 6B) Quantification of the immunofluorescence in 50 cells from each condition. Coloc refers to co-localization of both GSK3α and ubiquitin (ub), as determined by yellow color on the merged confocal image. ****, p<0.0001. ns (not significant), p>0.05.
# Jurkat cells [4] = test system: Jurkat cells
# Text: It was then sought to determine whether GSK3α promotes survival in response to starvation of these amino acids. […] It was then asked whether GSK3α promotes the survival of normal cells in response to essential amino acid starvation, using normal human CD34+ hematopoietic progenitors or CCD841 cells derived from normal human intestinal epithelium (38).
# Jurkat cells [5] = assay: GSK3β localization by confocal immunofluorescence microscopy; format: cell-based, human; settings: asparaginase 100 U/L for 48 hours
# Method: as §1, §2
# Jurkat cells [6] = assay: Proteinase K protection assay of GSK3α; format: cell-based, human; settings: Jurkat cells permeabilized with digitonin, Western blot
# Method: Jurkat cells were treated with vehicle, asparaginase (×48 hrs) to induce formation of GSK3α bodies, or Wnt3A to induce GSK3 sequestration in membrane-bound multivesicular bodies (Taelman et al., 2010). Cells were permeabilized, and treated with vehicle or proteinase K to digest free cytoplasmic proteins. Triton is a control that dissolves all membranes.
# It was then determined whether GSK3α bodies are membraneless using the proteinase K protection assay. Jurkat cells were treated with vehicle or asparaginase to trigger GSK3α body formation. As a positive control, treatment with Wnt3A was included, which triggers sequestration of GSK3 inside membrane-bound multivesicular endosomes (19). Following cytoplasmic membrane permeabilization with digitonin, cells were treated with proteinase K, and GSK3α protein levels were assessed by Western blot analysis. […] These findings indicate that GSK3α bodies are membraneless.
Molecule,Survival under essential amino acid starvation [1],Survival under essential amino acid starvation [2],Formation of GSK3α puncta on addition of amino acid (Jurkat cells [3]),Accessibility of GSK3α to proteinase K digestion (Jurkat cells [6]),other results
CC[C@]1(c2ccccc2)C2=C(CC(C)(C)CC2=O)Nc2[nH]ncc21 [BRD5648],had no effect,had no effect,,,
CC[C@@]1(c2ccccc2)C2=C(CC(C)(C)CC2=O)Nc2[nH]ncc21 [BRD0705],impaired survival,impaired survival,,,"Effect on GSK3α biomolecular condensation in response to asparaginase (Jurkat cells [3]; Jurkat T-ALL cells, combination with asparaginase): did not block the ability of GSK3α to undergo biomolecular condensation; Accumulation of ubiquitin in GSK3α bodies (Jurkat T-ALL cells): did prevent accumulation of ubiquitin in GSK3α bodies; Viability in leucine-deficient medium (Jurkat cells [4]; leucine-deficient medium): impaired viability; Viability in valine-deficient medium (Jurkat cells [4]; valine-deficient medium): impaired viability"
"NC(=O)C[C@H](N)C(=O)O [L-Asn, asparagine]",,,inhibits the formation of GSK3α puncta,,
"NC(=O)CC[C@H](N)C(=O)O [L-Glut, glutamine]",,,does not,,
asparaginase,,,,remained accessible to proteinase K digestion,"GSK3α body formation (condensation into cytoplasmic puncta) induced by treatment (Jurkat cells [3]; Jurkat cells, asparaginase 100 U/L for 48 hours): triggered its condensation into distinct cytoplasmic puncta; GSK3β localization after treatment (Jurkat cells [5]): remained broadly distributed regardless of asparaginase therapy"
"Wnt3A: positive control that triggers sequestration of GSK3 inside membrane-bound multivesicular endosomes (protein, UniProt P56704 19-352, looked up) Protein Wnt-3a: SYPIWWSLAVGPQYSSLGSQPILCASIPGLVPKQLRFCRNYVEIMPSVAEGIKIGIQECQHQFRGRRWNCTTVHDSLAIFGPVLDKATRESAFVHAIASAGVAFAVTRSCAEGTAAICGCSSRHQGSPGKGWKWGGCSEDIEFGGMVSREFADARENRPDARSAMNRHNNEAGRQAIASHMHLKCKCHGLSGSCEVKTCWWSQPDFRAIGDFLKDKYDSASEMVVEKHRESRGWVETLRPRYTYFKVPTERDLVYYEASPNFCEPNPETGSFGTRDRTCNVSSHGIDGCDLLCCGRGHNARAERRREKCRCVFHWCCYVSCQECTRVYDVHTCK",,,,protected from protease digestion,

# — patent US12590966B2, “Method for treating cancer” (THE CHILDREN'S MEDICAL CENTER CORPORATION, priority 2019, dated 2026)
